Common to all, as to assay: NCI tumour cell line growth inhibition, 48 h
The subject of test [1] is A498 renal.
The test system of test [2] is BT-549 breast.
In test [3] the test system is CAKI-1 renal.
Test [4] deals with CCRF-CEM leukemia.
Test [5] concerns HCT-116 colon.
The test system of test [6] is HT29 colon.
The test system of test [7] is IGROV1 ovarian.
The test system of test [8] is K-562 leukemia.
The test system of test [9] is KM12 colon.
Test [10] concerns MCF7 breast.
Test [11] concerns NCI-H23 lung.
The subject of test [12] is NCI-H522 lung.
The subject of test [13] is OVCAR-8 ovarian.
The test system of test [14] is SF-295 CNS.
In test [15] the test system is SF-539 CNS.
Test [16] concerns SK-MEL-2 melanoma.
Test [17] deals with SK-MEL-28 melanoma.
The test system of test [18] is SK-OV-3 ovarian.
Test [19] concerns SNB-19 CNS.
For test [20], the system named is T-47D breast.

Experimental findings from PubChem BioAssay (NCI) are described below.

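Values below derive from 48-hour exposures of cells grown in 96-well plates, with endpoints linearly interpolated between the two concentrations bracketing the appropriate inhibition level. Definition used: TGI = concentration required for complete inhibition of growth.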 *1 amine or outer side, *2 acyl side, *3 side chain or, on linkers, in order; H or OH if unused. Where a SMILES comes first, the peptide text is derived from it. [ ]: non-standard residue; d: D form. X33 = C=CCC(O[*:1])C(=O)[*:2]; NMeV = CN[CH](C(=O)O)C(C)C; NMeA = CN[CH](C)C(=O)O; βAla = NCCC(=O)O Bounds are passed on as bounds.

Take `O=C(O)CC1OCC=C2CN3CCC45C6=CC(=O)C(=O)C([N+](=O)[O-])=C6NC4C1C2CC35` (stereo not drawn): the TGI in [1] was more than 100 µM; in test [2], more than 100 µM; in [3], more than 100 µM; in [4], 61.8 µM; in test [5], more than 100 µM; in test [6], more than 100 µM. Besides, the TGI in test [7], in [8], in test [9], in test [10], in [11] and in test [12] was more than 100 µM throughout. For the same molecule, the TGI in test [13], in test [14], in test [15], in [16], in test [17] and in test [18] was more than 100 µM each time. Besides, the TGI in test [19] and in test [20] was more than 100 µM each time.
As to `C=CCC1OC(=O)CCNC(=O)C(C)N(C)C(=O)C(C(C)C)N(C)C(=O)C(C(C)CC)NC(=O)C2CCCN2C1=O` (stereo not drawn) (cyclo([X33]PI[NMeV][NMeA][βAla]); configuration not given here), the TGI in test [2], in [3], in test [4], in [5], in test [6] and in test [7] was more than 100 µM each time. For the same molecule, the TGI in test [9], in [10], in test [11], in [12], in test [13] and in test [14] was more than 100 µM in each case. The TGI in [15], in test [16], in test [17], in test [19] and in [20] was more than 100 µM each time.
Regarding `CCOP(=O)(CN=C(c1ccccc1)c1ccccc1)OCC`, the TGI in [1], in test [3], in [4], in test [5], in test [6] and in test [7] was more than 100 µM each time. Also, the TGI in test [8], in [10], in [11], in test [12], in test [13] and in [14] was more than 100 µM throughout. Further, the TGI in test [16], in test [17], in test [18], in [19] and in test [20] was more than 100 µM throughout.
`CCCCCC[C@H]1C(=O)O[C@H](C)[C@H](NC(=O)c2cccc(NC=O)c2OC)C(=O)O[C@@H](C)[C@@H]1OC(=O)CC(C)C` (tested in a mixture with another compound): the TGI in [1] was 47.2 µM; in test [2], more than 100 µM; in test [3], 57.3 µM; in [4] it was 85.3 µM; in test [5] it was 50.3 µM; in test [6], more than 100 µM. Besides, the TGI in test [8] was more than 100 µM; in test [9], more than 100 µM; in test [10] it was 78.3 µM; in test [11], 48.3 µM; in test [12] it was more than 100 µM; in test [13], 30.4 µM. The TGI in test [14] was more than 100 µM; in [15], 78.3 µM; in [16], more than 100 µM; in test [17], more than 100 µM; in test [18] it was 39.2 µM; in test [20], more than 100 µM.
`CCSc1nc(=[N+]2CCCC2)ss1`: the TGI is more than 100 µM in [1]; 95.9 µM in [2]; more than 100 µM in test [3]; 13.2 µM in test [4]; more than 86.9 µM in test [5]; more than 92.1 µM in [6]. Further, the TGI in test [7] is more than 90 µM; in test [8], 24.1 µM; in test [9], more than 100 µM; in test [10], 41.1 µM; in test [11], more than 79.9 µM; in [12] it was more than 100 µM. The TGI in test [13] is more than 100 µM; in test [14] it was more than 100 µM; in test [15] it was more than 85.6 µM; in test [16], more than 100 µM; in test [17], more than 100 µM; in test [18] it was more than 100 µM. The molecule further displayed a TGI in test [19] of more than 100 µM.
Regarding `O=C(NN1C(=O)CSC1c1ccc(C(F)(F)F)cc1)c1ccncc1` (stereo not drawn), the TGI in [1] is more than 31.6 µM; in test [3], more than 100 µM; in test [4], more than 100 µM; in test [5], more than 100 µM; in test [6], more than 100 µM; in test [7], more than 100 µM. The TGI in test [8], in [9], in [10], in test [11], in test [12] and in test [13] was more than 100 µM in each case. Besides, the TGI in test [14], in [15], in test [16], in test [17], in [18] and in [19] was more than 100 µM in each case.
As for `O=S(=O)(O)c1ccc2c(N=Nc3ccc(F)cc3)c(O)c(S(=O)(=O)O)cc2c1`, the TGI in test [1], in [2], in test [3], in [4], in test [5] and in [6] was more than 100 µM each time. Besides, the TGI in [7], in test [8], in test [9], in test [11], in [12] and in test [13] was more than 100 µM in each case. Moreover, the TGI in [14], in [16], in test [17], in test [18], in test [19] and in test [20] was more than 100 µM each time.
Take `COc1ccc(-c2c3c(nc4nc(SC)nc(SC)c24)CCCC3)cc1OC`: the TGI in test [1] was more than 100 µM; in test [2] it was more than 100 µM; in test [3], more than 100 µM; in test [4], 90.2 µM; in [5], more than 100 µM; in test [6], more than 100 µM. The TGI in test [7], in test [8], in [9], in [10], in test [11] and in test [12] was more than 100 µM throughout. Also, the TGI in test [14], in test [15], in [16], in [17], in test [18] and in test [19] was more than 100 µM each time. Besides, the TGI in test [20] was more than 100 µM.
Turning to `Cc1ccc(Nc2nc(NS(=O)(=O)c3cc(C(=O)Nc4ccc(Cl)cc4)c(Cl)cc3S)n[nH]2)cc1`, the TGI in [2], in [3], in [4], in test [5], in test [6] and in test [7] was more than 100 µM in each case. The TGI in [8], in [9], in test [10], in [11], in [13] and in test [14] was more than 100 µM in each case. For the same molecule, the TGI in test [15], in test [17], in [18], in test [19] and in test [20] was more than 100 µM throughout.
As for `Cc1ccc2c(C)c3ccc4ccccc4c3c[n+]2c1`, the TGI was more than 100 µM in test [1]; more than 100 µM in test [3]; 46.4 µM in test [4]; more than 89.7 µM in test [5]; more than 100 µM in [6]; more than 100 µM in test [7]. The TGI in [8] was more than 100 µM; in test [9], 14.6 µM; in [11], 38.6 µM; in [12], 28.3 µM; in test [13] it was 36.9 µM; in test [14], more than 81.1 µM. Besides, the TGI is 33.7 µM in test [15]; 29.5 µM in [16]; 33 µM in test [17]; more than 87.2 µM in [18]; 40.8 µM in [19].
For the molecule `Clc1nc(NCCc2ccccc2)c2ncn(-c3ccccc3)c2n1`, the TGI in [1] is 41.9 µM; in test [2] it was 60 µM; in [3], 34 µM; in [5] it was 56.4 µM; in [6] it was 34.2 µM; in test [7], more than 100 µM. In addition, the TGI in test [8] was 70.5 µM; in test [9], 51.3 µM; in test [10], 60.8 µM; in test [11] it was 77.3 µM; in test [12] it was 56.4 µM; in test [13] it was 90.6 µM. Besides, the TGI was more than 100 µM in [14]; 19.9 µM in test [16]; 94.1 µM in test [17]; 60.7 µM in test [18]; more than 100 µM in [19]; 98.2 µM in test [20].
`CC1OC1C(=O)C1(O)C(C)C(O)C23OC2(C(O)c2c(O)cccc2C3=O)C1O` (stereo not drawn): the TGI stood at 1.2 µM in test [1]; 0.253 µM in test [3]; 0.703 µM in test [5]; 0.629 µM in test [6]; 0.775 µM in test [7]; 0.776 µM in test [8]. Besides, the TGI in test [9] stood at 1.04 µM; in [10], 2.01 µM; in test [11] it was 0.543 µM; in test [12], 0.338 µM; in test [13], 1.72 µM; in [14] it was 0.693 µM. In addition, the TGI in test [15] came out at 0.276 µM; in test [16] it was 0.413 µM; in [17] it was 0.682 µM; in test [18], 0.532 µM; in test [19], 0.742 µM.
For the molecule `O=C(O)CC1(CC(=O)O)Nc2ccccc2SC1=O`, the TGI in test [1], in [2], in test [3], in test [4], in test [5] and in test [6] was more than 100 µM in each case. Besides, the TGI in test [7], in test [8], in test [9], in test [10], in test [11] and in test [12] was more than 100 µM throughout. Further, the TGI in test [13], in [14], in test [16], in test [17], in [18] and in test [19] was more than 100 µM each time. Besides, the TGI in test [20] is more than 100 µM.
For `CC(c1ccccc1)/[N+]([O-])=C/c1ccccc1` (stereo not drawn), the TGI in [1], in test [4], in [5], in test [6], in [7] and in [8] was more than 100 µM each time. Also, the TGI in [9], in test [11], in test [12], in [13], in [14] and in test [15] was more than 100 µM in each case. The TGI in [17], in test [18] and in test [19] was more than 100 µM each time.
As for `COc1cc2c(cc1OC)C(C)N(C)c1c-2c(OC(C)=O)cc2cc(OC)c(OC)cc12` (stereo not drawn), the TGI in test [1] was more than 52.9 µM; in [2] it was 47.1 µM; in [3] it was 49.5 µM; in test [4], more than 100 µM; in test [5], 35.2 µM; in test [6] it was more than 58.9 µM. The TGI in test [8] was more than 100 µM; in [9], 34.1 µM; in [10] it was 40.2 µM; in test [11] it was 36.7 µM; in test [12], 19.2 µM; in [13], 33.2 µM. Moreover, the TGI in test [14] is 53.4 µM; in test [15] it was 40.6 µM; in [16], 30.2 µM; in test [17], more than 60.1 µM; in [18] it was more than 100 µM; in [19], more than 100 µM. Further, the TGI in test [20] was determined as 24.1 µM.
